# Measurements from US20260159536A1, “AKR1C3-ACTIVATED DNA ALKYLATING AGENT, AND MEDICAL APPLICATION THEREOF” (ASCENTAWITS PHARMACEUTICALS, LTD., priority 2021, published 2026).
# Assays:
# [1] = Chiral stability under long-term and accelerated storage conditions; type: physicochemical
# Method: Isomer stability under long-term and accelerated conditions was studied.
# Compound A and isomers A-P1 and A-P2 were investigated for traits and isomeric stability at −20±5° C., 5° C.±3° C., 25° C.±2° C. (60%±5% RH) and 40° C.±2° C.
# [2] = test system: HuPrime model LI6643 human liver cancer; experiment: In vivo pharmacodynamics, liver cancer LI6643 PDX model (Compound A, Sorafenib; section 4.8); design: species or system BALB/c nude mice; settings: for Relative tumor volume (x ± S) / T/C (%) / TGI (%) / Tumor volume (x ± S): QDx5, 2 days off, 2 weeks off, QDx5, i.p.
# Method: Experiment Instruction: BALB/c nude mice were subcutaneously inoculated with HuPrime® model LI6643 tumor blocks to establish a subcutaneous transplantation tumor model of human liver cancer. […] The efficacy was evaluated according to the relative tumor inhibition rate TGI (%), and the safety was evaluated according to the change in body weight and the death of the animals.
# [3] = 25° C. ± 2° C./60% ± 5% RH, 6 months
# [4] = 40° C. ± 2° C./75% ± 5% RH, 6 months
smiles,measurement,setting,value
O=[N+]([O-])c1ccc(C(OP(=O)(N2CC2)N2CC2)C(F)(F)F)cc1Oc1ccc(-c2ccc(F)cc2)c(F)c1 (racemic) [Compound A],Isomer peak A-P1,[1]; 0 month,49.8%
same,Isomer peak A-P2,[1]; 0 month,50.2%
same,Isomer peak A-P1,"[1]; 5° C. ± 3° C., 6 months",49.9%
same,Isomer peak A-P2,"[1]; 5° C. ± 3° C., 6 months",50.1%
same,Isomer transformation,"[1]; 5° C. ± 3° C., 6 months",0.1%
same,properties and chirality after storage,"[1]; 5° C., 25° C./60% RH, 40° C./75% RH, 6 months",essentially unchanged
same,Isomer peak A-P1,[1]; [3],49.9%
same,Isomer peak A-P2,[1]; [3],50.1%
same,Isomer transformation,[1]; [3],0.1%
same,Isomer peak A-P1,[1]; [4],49.9%
same,Isomer peak A-P2,[1]; [4],50.1%
same,Isomer transformation,[1]; [4],0.1%
same,Tumor volume,"[2]; 1.25 mg/kg i.p., Day 0",126.02 mm^3
same,Tumor volume,"[2]; 1.25 mg/kg i.p., Day 4",181.97 mm^3
same,Tumor volume,"[2]; 1.25 mg/kg i.p., Day 7",270.85 mm^3
same,Tumor volume,"[2]; 1.25 mg/kg i.p., Day 11",264.04 mm^3
same,Tumor volume,"[2]; 1.25 mg/kg i.p., Day 14",197.40 mm^3
same,Tumor volume,"[2]; 1.25 mg/kg i.p., Day 18",177.65 mm^3
same,Tumor volume,"[2]; 1.25 mg/kg i.p., Day 21",102.13 mm^3
same,Tumor volume,"[2]; 1.25 mg/kg i.p., Day 25",90.41 mm^3
same,Tumor volume,"[2]; 1.25 mg/kg i.p., Day 28",73.75 mm^3
same,Tumor volume,"[2]; 1.25 mg/kg i.p., Day 32",49.39 mm^3
same,Tumor volume,"[2]; 1.25 mg/kg i.p., Day 35",35.61 mm^3
same,Tumor volume,"[2]; 1.25 mg/kg i.p., Day 39",31.79 mm^3
same,Tumor volume,"[2]; 1.25 mg/kg i.p., Day 42",25.59 mm^3
same,Tumor volume,"[2]; 1.25 mg/kg i.p., Day 46",19.34 mm^3
same,Tumor volume,"[2]; 1.25 mg/kg i.p., Day 49",12.51 mm^3
same,Tumor volume,"[2]; 1.25 mg/kg i.p., Day 53",9.04 mm^3
same,Relative tumor volume (x ± S),"[2]; 1.25 mg/kg, Day 35",0.27 ± 0.14
same,T/C (%),"[2]; 1.25 mg/kg, Day 35",1.89%
same,TGI (%),"[2]; 1.25 mg/kg, Day 35",98.11%
same,Tumor volume (x ± S),"[2]; 1.25 mg/kg, Day 35",35.61 ± 18.63
same,Tumor volume,"[2]; 2.5 mg/kg i.p., Day 0",125.92 mm^3
same,Tumor volume,"[2]; 2.5 mg/kg i.p., Day 4",199.12 mm^3
same,Tumor volume,"[2]; 2.5 mg/kg i.p., Day 7",278.32 mm^3
same,Tumor volume,"[2]; 2.5 mg/kg i.p., Day 11",191.74 mm^3
same,Tumor volume,"[2]; 2.5 mg/kg i.p., Day 14",167.14 mm^3
same,Tumor volume,"[2]; 2.5 mg/kg i.p., Day 18",154.33 mm^3
same,Tumor volume,"[2]; 2.5 mg/kg i.p., Day 21",100.94 mm^3
same,Tumor volume,"[2]; 2.5 mg/kg i.p., Day 25",103.28 mm^3
same,Tumor volume,"[2]; 2.5 mg/kg i.p., Day 28",93.12 mm^3
same,Tumor volume,"[2]; 2.5 mg/kg i.p., Day 32",74.85 mm^3
same,Tumor volume,"[2]; 2.5 mg/kg i.p., Day 35",56.62 mm^3
same,Tumor volume,"[2]; 2.5 mg/kg i.p., Day 39",39.85 mm^3
same,Tumor volume,"[2]; 2.5 mg/kg i.p., Day 42",27.34 mm^3
same,Tumor volume,"[2]; 2.5 mg/kg i.p., Day 46",14.83 mm^3
same,Tumor volume,"[2]; 2.5 mg/kg i.p., Day 49",12.00 mm^3
same,Tumor volume,"[2]; 2.5 mg/kg i.p., Day 53",12.86 mm^3
same,Relative tumor volume (x ± S),"[2]; 2.5 mg/kg, Day 35",0.45 ± 0.07
same,T/C (%),"[2]; 2.5 mg/kg, Day 35",3.19%
same,TGI (%),"[2]; 2.5 mg/kg, Day 35",96.81%
same,Tumor volume (x ± S),"[2]; 2.5 mg/kg, Day 35",56.62 ± 9.62
same,Tumor volume,"[2]; 5 mg/kg i.p., Day 0",126.93 mm^3
same,Tumor volume,"[2]; 5 mg/kg i.p., Day 4",178.97 mm^3
same,Tumor volume,"[2]; 5 mg/kg i.p., Day 7",214.95 mm^3
same,Tumor volume,"[2]; 5 mg/kg i.p., Day 11",132.13 mm^3
same,Tumor volume,"[2]; 5 mg/kg i.p., Day 14",63.74 mm^3
same,Tumor volume,"[2]; 5 mg/kg i.p., Day 18",60.36 mm^3
same,Tumor volume,"[2]; 5 mg/kg i.p., Day 21",40.93 mm^3
same,Tumor volume,"[2]; 5 mg/kg i.p., Day 25",24.91 mm^3
same,Tumor volume,"[2]; 5 mg/kg i.p., Day 28",21.48 mm^3
same,Tumor volume,"[2]; 5 mg/kg i.p., Day 32",8.71 mm^3
same,Tumor volume,"[2]; 5 mg/kg i.p., Day 35",7.12 mm^3
same,Tumor volume,"[2]; 5 mg/kg i.p., Day 39",6.77 mm^3
same,Tumor volume,"[2]; 5 mg/kg i.p., Day 42",5.57 mm^3
same,Tumor volume,"[2]; 5 mg/kg i.p., Day 46",4.27 mm^3
same,Tumor volume,"[2]; 5 mg/kg i.p., Day 49",4.12 mm^3
same,Tumor volume,"[2]; 5 mg/kg i.p., Day 53",3.81 mm^3
